Measurements from patent publication US6727237B2, “Inhibitors of bacterial NAD synthetase” (priority 1998, dated 2004).

Tests used:
[1] = biological target: T1, bacterial NAD synthetase enzyme (Bacillus subtilis, UniProt P08164); test: biochemical; assay type: biochemical
T1 sequence (P08164 2-272 limits assumed): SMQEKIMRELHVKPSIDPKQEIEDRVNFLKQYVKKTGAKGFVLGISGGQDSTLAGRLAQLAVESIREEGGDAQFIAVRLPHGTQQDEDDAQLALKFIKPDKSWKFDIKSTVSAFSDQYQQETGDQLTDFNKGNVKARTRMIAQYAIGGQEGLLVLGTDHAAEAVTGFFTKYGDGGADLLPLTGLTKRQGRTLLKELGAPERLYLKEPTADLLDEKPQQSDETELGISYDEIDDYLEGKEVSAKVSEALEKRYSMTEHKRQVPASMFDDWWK

[2] = tested on: Staphylococcus epidermitis; test: Bacterial growth inhibition screen in LB media (absorbance 595 nm), percent inhibition; settings: S. epidermitis
[3] = compound at 0.2 mM (Table 312A)

Row | Structure (SMILES) | % Inhibition [1, 3] [%] | % Inhibition ([2]; concentration screened 10 uM) [%] | % Inhibition ([1]; compound at 0.1 mM (Table 314)) [%] | % Inhibition ([2]; concentration screened 100 uM) [%]
1 | COC(=O)c1ccc[n+](CCCCn2ccc3cc([N+](=O)[O-])ccc32)c1 [Compound 9] | 28.02 | 31.80 |  | 
2 | COC(=O)c1ccc2c(ccn2CCCCCCCCC[n+]2ccccc2)c1 [Compound 166] | 87.68 | 21.66 |  | 
3 | COC(=O)C=Cc1cn(CCCCCCC[n+]2cccc(C(=O)OC)c2)c2ccccc12 [Compound 269] |  | 46.12 | 51.12 | 
4 | c1cc[n+](CCCCCCc2cc3ccccc3[nH]2)cc1 [Compound 285] | 32.45 |  |  | 98.57
5 | Fc1cc(F)c2[nH]c(CCC[n+]3ccccc3)cc2c1 [Compound 300] | 11.79 | 6.20 |  | 
6 | Fc1cc(F)c2[nH]c(CCCCCC[n+]3ccccc3)cc2c1 [Compound 303] | 50.56 |  |  | 100.00
7 | O=[N+]([O-])c1cc([N+](=O)[O-])c2[nH]c(CCC[n+]3ccccc3)cc2c1 [Compound 306] | 33.93 | 4.32 |  | 
8 | O=[N+]([O-])c1cc([N+](=O)[O-])c2[nH]c(CCCCCC[n+]3ccccc3)cc2c1 [Compound 309] |  |  | 41.47 | 99.07
9 | CCCCc1ccc2[nH]c(CCC[n+]3ccccc3)cc2c1 [Compound 312] |  | 4.60 | 10.25 | 
10 | CC(C)c1ccc2[nH]c(CCC[n+]3ccccc3)cc2c1 [Compound 318] | 14.94 | 2.99 |  | 
11 | CC(C)c1ccc2[nH]c(CCCCCC[n+]3ccccc3)cc2c1 [Compound 321] |  |  | 37.25 | 100.00
12 | c1ccc(-c2ccc3[nH]c(CCCCC[n+]4ccccc4)cc3c2)cc1 [Compound 326] |  | 6.27 | 16.11 | 
13 | c1ccc(-c2ccc3[nH]c(CCCCCC[n+]4ccccc4)cc3c2)cc1 [Compound 327] |  |  | 55.31 | 100.00
14 | O=[N+]([O-])c1ccc2[nH]c(CCCCCC[n+]3ccccc3)cc2c1 [Compound 333] |  |  | 26.29 | 100.00
15 | c1ccc(C(c2ccccc2)(c2ccccc2)c2ccc3[nH]c(CCCCC[n+]4ccccc4)cc3c2)cc1 [Compound 338] |  | 1.67 | 27.28 | 
16 | c1ccc(C(c2ccccc2)(c2ccccc2)c2ccc3[nH]c(CCCCCC[n+]4ccccc4)cc3c2)cc1 [Compound 339] | 42.87 |  |  | 100.00
17 | Fc1ccc2[nH]c(CCC[n+]3ccccc3)cc2c1 [Compound 342] | 11.92 | 14.97 |  | 
18 | Fc1ccc2[nH]c(CCCCC[n+]3ccccc3)cc2c1 [Compound 344] | 4.58 | 8.08 |  | 
19 | c1ccc(Oc2ccc3[nH]c(CCCCCC[n+]4ccccc4)cc3c2)cc1 [Compound 351] | 65.08 |  |  | 99.57
20 | O=C(c1ccccc1)c1ccc2[nH]c(CCCC[n+]3ccccc3)cc2c1 [Compound 355] | 2.08 | 5.78 | 3.31 | 
21 | O=C(c1ccccc1)c1ccc2[nH]c(CCCCC[n+]3ccccc3)cc2c1 [Compound 356] | 1.95 |  |  | 19.29
22 | O=C(c1ccccc1)c1ccc2[nH]c(CCCCCCCC[n+]3ccccc3)cc2c1 [Compound 359] | 35.55 |  |  | 1.01
23 | FC(F)(F)c1ccc2[nH]c(CCCC[n+]3ccccc3)cc2c1 [Compound 361] |  | 5.57 | 16.08 | 
24 | FC(F)(F)c1ccc2[nH]c(CCCCCCC[n+]3ccccc3)cc2c1 [Compound 364] | 29.20 | 2.16 |  | 
25 | O=C(OCCCCCCCCc1cc2cc(Oc3ccccc3)ccc2[nH]1)c1cccnc1 [Compound 686] |  | 22.14 |  | 
26 | CC(C)c1ccc2[nH]c(CCCCOC(=O)c3cccnc3)cc2c1 [Compound 687] |  | 14.44 |  | 

Row | Structure (SMILES) | % Inhibition [1, 3] [%] | % Inhibition ([2]; concentration screened 10 uM) [%] | % Inhibition ([1]; compound at 0.1 mM (Table 314)) [%] | % Inhibition ([2]; concentration screened 100 uM) [%]
27 | CC(=O)c1ccc2[nH]c(CCCCOC(=O)c3cccnc3)cc2c1 [Compound 690] |  | 10.01 |  | 
28 | O=C(OCCCCc1cc2cc(C(=O)c3ccccc3)ccc2[nH]1)c1cccnc1 [Compound 693] |  | 14.37 |  | 
29 | O=C(OCCCCCCCc1cc2cc(C(=O)c3ccccc3)ccc2[nH]1)c1cccnc1 [Compound 694] |  | 2.59 |  | 
30 | O=C(OCCCCCCCCc1cc2cc(Oc3ccccc3)ccc2[nH]1)c1ccncc1 [Compound 701] |  | 3.88 |  | 
31 | CC(C)c1ccc2[nH]c(CCCCCCCOC(=O)c3ccncc3)cc2c1 [Compound 703] |  | 4.29 |  | 
32 | CC(C)c1ccc2[nH]c(CCCCCCCCOC(=O)c3ccncc3)cc2c1 [Compound 704] |  | 19.07 |  | 
33 | CC(=O)c1ccc2[nH]c(CCCCCCCOC(=O)c3ccncc3)cc2c1 [Compound 706] |  | 6.68 |  | 
34 | CC(=O)c1ccc2[nH]c(CCCCCCCCOC(=O)c3ccncc3)cc2c1 [Compound 707] |  | 3.61 |  | 
35 | O=C(OCCCCCCCc1cc2cc(C(=O)c3ccccc3)ccc2[nH]1)c1ccncc1 [Compound 709] |  | 12.94 |  | 
36 | O=C(OCCCCCCCCc1cc2cc(C(=O)c3ccccc3)ccc2[nH]1)c1ccncc1 [Compound 710] |  | 6.95 |  | 
37 | O=C(OCCCCCCCCc1cc2cc([N+](=O)[O-])ccc2[nH]1)C(c1ccccc1)c1ccccc1 [Compound 726] |  | 16.76 |  | 
38 | CN(C)c1ccc(C(=O)OCCCCCCCCc2cc3cc([N+](=O)[O-])ccc3[nH]2)cc1 [Compound 727] |  | 42.23 |  | 
39 | O=C(CCc1cccnc1)OCCCCCCCCc1cc2cc([N+](=O)[O-])ccc2[nH]1 [Compound 728] |  | 13.28 |  | 
40 | O=C(OCCCCCCCCc1cc2cc([N+](=O)[O-])ccc2[nH]1)c1ccccc1-c1ccccc1 [Compound 729] |  | 8.24 |  | 
41 | COc1ccc2c(ccn2CCCCOC(=O)c2ccc([N+](C)(C)C)cc2)c1 [Compound 780] |  | 4.78 |  | 
42 | C[N+](C)(C)c1cccc(C(=O)OCCCCn2ccc3cc(OCc4ccccc4)ccc32)c1 [Compound 805] |  | 50.87 |  | 
43 | COc1ccc2c(ccn2CCCCOC(=O)c2cc3ccccc3[n+](C)c2)c1 [Compound 820] |  | 65.74 |  | 
44 | C[n+]1cc(C(=O)OCCCCn2ccc3cc(OCc4ccccc4)ccc32)cc2ccccc21 [Compound 825] |  | 83.13 |  | 
45 | C[n+]1cc(C(=O)OCCCCCCCCn2ccc3cc(OCc4ccccc4)ccc32)cc2ccccc21 [Compound 829] |  | 98.64 |  | 
46 | O=C(OCCCCn1ccc2cc([N+](=O)[O-])ccc21)c1cnc2ccccc2c1 [Compound 830] |  | 42.99 |  | 
47 | CN(C)c1cccc(C(=O)OCCCCCCn2ccc3cc([N+](=O)[O-])ccc32)c1 [Compound 838] |  | 17.65 |  | 
48 | CN(C)c1ccc(C(=O)OCCCCCn2ccc3cc([N+](=O)[O-])ccc32)cc1 [Compound 843] |  | 2.20 |  | 
49 | CN(C)c1ccc(C(=O)OCCCCCCCCCn2ccc3cc([N+](=O)[O-])ccc32)cc1 [Compound 847] |  | 19.84 |  | 
50 | O=C(OCCCn1ccc2cc([N+](=O)[O-])ccc21)c1cccnc1 [Compound 855] |  | 49.58 |  | 
51 | C[n+]1cccc(C(=O)OCCCCn2ccc3cc([N+](=O)[O-])ccc32)c1 [Compound 863] |  | 4.72 |  | 
